Results on twelve compounds are retold here after the NIST ThermoML archive (doi:10.1016/j.tca.2017.10.003).

Each structure is given as a SMILES string. Numbers after ± are expanded uncertainties.

The conditions of data set [1]: Crystal; DTA.
Data set [2] can be described thus: Molar enthalpy of transition or fusion. The settings on record: DSC.

As to `CCCCCCCCCCCCCCCCO` [1-hexadecanol], the Normal melting temperature in data set [1] is 48.00 ± 5 °C. Also, the “Molar enthalpy of transition or fusion” value in data set [2] (Crystal 2) stood at 54.8 ± 3.4 kJ/mol.
In the case of `CCCCCCCCCCCCCCCCCCO` [1-octadecanol], the Normal melting temperature in data set [1] was found to be 54.00 ± 5 °C. Moreover, the “Molar enthalpy of transition or fusion” value in data set [2] (Crystal) is 67.9 ± 4.3 kJ/mol.
The matching figures for `CCCCCCCCCCCCCCO` [1-tetradecanol]: 36.00 ± 5 °C and 51.7 ± 3.2 kJ/mol.
The matching figures for `CCCCCCCC/C=C\CCCCCCCCO` [(Z)-9-octadecen-1-ol]: -1.00 ± 5 °C and 35.2 ± 2.1 kJ/mol.
Regarding `CCCCCCCCCCO` [decan-1-ol], the Normal melting temperature in data set [1] came to 3.00 ± 5 °C. Further, in data set [2] (Crystal), the “Molar enthalpy of transition or fusion” value stood at 32.6 ± 2.1 kJ/mol.
In the same order, the values of `CCCCCCCCCCOC(=O)OCCCCCCCCCC` [didecyl carbonate] are -1.00 ± 6 °C and 49.7 ± 3.1 kJ/mol.
The matching figures for `CCCCCCCCCCCCOC(=O)OCCCCCCCCCCCC` [didodecyl carbonate]: 21.00 ± 6 °C and 69.4 ± 4.4 kJ/mol.
Consider `CCCCCCCCCCCCCCCCOC(=O)OCCCCCCCCCCCCCCCC` [dihexadecyl carbonate], for which, in data set [1], the Normal melting temperature worked out at 47.00 ± 6 °C. Moreover, the “Molar enthalpy of transition or fusion” value in data set [2] (Crystal) was 99.1 ± 6.1 kJ/mol.
For `CCCCCCCCCCCCCCCCCCOC(=O)OCCCCCCCCCCCCCCCCCC` [dioctadecyl carbonate], the Normal melting temperature in data set [1] is 50.00 ± 6 °C. In data set [2] (Crystal), the “Molar enthalpy of transition or fusion” value was 101 ± 6.2 kJ/mol.
The matching figures for `CCCCCCCC/C=C\CCCCCCCCOC(=O)OCCCCCCCC/C=C\CCCCCCCC` [dioleyl carbonate]: -4.00 ± 6 °C and 56.3 ± 3.4 kJ/mol.
In the same order, the values of `CCCCCCCCCCCCCCOC(=O)OCCCCCCCCCCCCCC` [ditetradecyl carbonate] are 35.00 ± 6 °C and 94.6 ± 5.9 kJ/mol.
In the same order, the values of `CCCCCCCCCCCCO` [dodecan-1-ol] are 23.00 ± 5 °C and 34.8 ± 2.2 kJ/mol.
